The record followed here is patent US20240180845A1, “THIN-SHELL POLYMERIC NANOPARTICLES AND USES THEREOF” (Academia Sinica, priority 2016, published 2024).

Structures are written as SMILES.

On the set-up of data set [1]: species or system mice. Conditions: mouse, in vivo. How it is done:
FIG. […], is a depiction of STING agonist-loaded nanoparticles on enhancing lymphatic cytokines while minimizing systemic cytokines. • A: Induction of TNF-α in a mouse dendritic cell line following incubation with cd-GMP nanoparticles and free cd-GMP. • B: Induction of IL-6 in the same mouse dendritic cell line. • C: Induction of IFN-β in the mouse dendritic cell line. • D: Activation of JAWSII upon incubation with equivalent doses of cd-GMP in free molecule form and in nanoparticle formulation. • E: Quantification of lymph node IFN-β 48 hours following footpad injection of free cd-GMP or nanoparticle cd-GMP. • F: Level of systemic TNF-α following footpad injection of free cd-GMP and nanoparticle cd-GMP. Immune potentiation by the cd-GMP nanoparticles was further compared to free cd-GMP in vivo in mice. 48 hours following footpad injections, the draining popliteal lymph nodes were collected for IFN-β quantification. […] In addition, the systemic level of TNF-α, an indicator of reactogenicity, was also monitored following the footpad administration of free cd-GMP and cd-GMP nanoparticles.

Data set [2] is described as follows: Encapsulation efficiency and loading of cargoes in thin-shell hollow PLGA nanoparticles. It is filed as physicochemical.

As to `Nc1nc2c(ncn2[C@@H]2O[C@@H]3COP(=O)(O)O[C@H]4[C@@H](O)[C@H](n5cnc6c(=O)[nH]c(N)nc65)O[C@@H]4COP(=O)(O)O[C@H]3[C@H]2O)c(=O)[nH]1` [cyclic di-GMP], the “serum level of TNF-α, indicator of reactogenicity” value in data set [1] was “elevated level”. The encapsulation efficiency result in data set [2] (cargo in thin-shell hollow PLGA nanoparticles, listed as cd-GMP) is “about 40%”. For the same molecule, the “STING agonist molecules per nanoparticle” value in data set [2] (hollow particles 100 to 200 nm in diameter) is on record as “approximately 2,000”.
